This note sets out measurements from patent US6359112B2 (Fraunhofer-Gesellschaft zur Forferung der angewandten …, priority 1997, dated 2002).

Read-outs that look alike come from different tables or passages of the source. No end group written: not given here.

In data set [1] the test system is Rat Insulinoma (RIN5 mf). The method, then: (§1) FIG. 4 is a graph of MTT reduction as a function of concentration of NFGAIL, SEQ ID NO: 3.
(§2) Suspensions of the peptide aggregate (produced as described as above) were tested by means of a Rat Insulinoma (RIN5 mf) and a human astroglioma-cell series (HTB-14) for toxicity. The newly dissolved peptides were also tested for cytotoxicity.

The subject of data set [2] is human astroglioma-cell series (HTB-14). The protocol: as §1, §2
Where [3] appears, read: aggregated form (suspension of peptide aggregate).
The mark [4] stands for this setting: soluble form (newly dissolved peptide).

For the substance NFGAIL [NFGAIL], the Cytotoxicity result in data set [1] (setting [3]) was “cyto-toxic”; in data set [1] (setting [4]) it was “no toxicity”; in data set [2] (setting [3]), “cyto-toxic”; in data set [2] (setting [4]) it was “no toxicity”.
